Laboratory results from patent US8486372B2, “Cyclic azapeptides as integrin markers and methods of using” (Siemens Medical Solutions USA, Inc., priority 2007, dated 2013).

Target: T1, Integrin αvβ3 expressing U87MG cells (Homo sapiens, UniProt P05106+P06756)
T1 construct: Integrin αvβ3 expressing U87MG cells; endogenous in cells; host or cells: U87MG cells
Test: Cell-based integrin binding competition assay against green fluorescence labeled compound 13
Conditions: 0-32 μM compound, 2 μM compound 13, 2 hrs, fluorescence reading, FIG. 2
Description: Integrin αvβ3 expressing U87MG cells were incubated with a series of concentration of RGD compounds (0-32 μM) in the presence of 2 μM of green fluorescence labeled compound 13 for 2 hrs. After incubation, cells were washed three times to eliminate unbound RGD compounds. Fluorescence readings (RLU) were then taken (excitation at 491 nm, emission at 518 nm, cutoff 515 nm).

SMILES: N=C(N)NCCC[C@@H]1NC(=O)[C@H](CCCCN)NC(=O)N(Cc2ccccc2)NC(=O)[C@H](CC(=O)O)NC(=O)CNC1=O [Compound 7, 2-((5S,8S,14S)-5-(4-aminobutyl)-2-benzyl-8-(3-guanidinopropyl)-3,6,9,12,15-pentaoxo-1,2,4,7,10,13-hexaazacyclopentadecan-14-yl)acetic acid]
- potency in binding competition: very similar in potency
